According to patent US7960551B2, “Compound” (Glaxo Group Limited, priority 2007, dated 2011):
Counter-ions that a name gives are not always drawn.

Assay: Dynamic Vapour Sorption (DVS) assessment
Format: physicochemical
Method: A Dynamic Vapour Sorption (DVS) profile of Form 1 was obtained using an SMS DVS-1 with water as a reagent at 25° C. 20-30 mg of sample were placed in a glass bulb and equilibrated at 30% RH. The % RH was increased to 90% in 10% steps.

## COc1cc(NC(=O)CCN2CCC(OC(=O)Nc3ccccc3-c3ccccc3)CC2)c(Cl)cc1CNC[C@H](O)c1ccc(O)c2[nH]c(=O)ccc12 [Form 1, Biphenyl-2-ylcarbamic Acid 1-[2-(2-Chloro-4-{[(R)-2-hydroxy-2-(8-hydroxy-2-oxo-1,2-dihydroquinolin-5-yl)ethylamino]methyl}-5-methoxyphenylcarbamoyl)-ethyl]piperidin-4-yl Ester Succinic Acid Salt (Form 1)]
Exposed to atmospheric moisture / DVS profile
  deliquescence: not to be deliquescent
Humidity range of 30% relative humidity to 90% relative humidity, water, 25° C.
  weight gain (hygroscopicity): less than 2.0%
Two sorption/desorption cycles, 0-90% RH in 10% steps, 25° C.
  sorption/desorption profile: reversible
